# Source: patent publication US20190133933A1, “FORMULATIONS AND METHODS FOR REDUCTION OF INTRAOCULAR PRESSURE” (CLEARSIDE BIOMEDICAL, INC., priority 2016, published 2019)
# System: normotensive dogs
# Test: Poststudy efficacy challenge: single topical ocular dose, IOP followed for 24 hours
# Type: in vivo, female beagle dogs
# Method: IOP was measured by using a TonoVet according to a study-specific procedure. IOP measurements consisted of three independent readings per eye per time point from each eye. Following approximately 4 weeks of washout, animals in both groups were administered latanoprost in the right eye and phosphate-buffered saline (PBS) in the left eye, and IOP measurements were followed for 24 hours. As applicable, the dosing solution was drawn up into a 1-mL luer-lock syringe using a standard 21-gauge, 1-inch needle. Bubbles were expressed and the standard needle was replaced by a 30-gauge microneedle 1100 μm in length. […] Following the injection, the needle was kept in the eye for approximately 10 seconds before being withdrawn. Upon withdrawal of the microneedle, a cotton-tipped applicator (CTA, dose wipe) was placed over the injection site for approximately 10 seconds. The right eye was dosed first and all post-dose times were based on the time of dosing of the second (left) eye.
# Approximately 8 weeks after dose administration, all animals underwent a poststudy efficacy challenge. A positive displacement pipette was used to administer a single 35-μL dose of latanoprost to the right eye and phosphate-buffered saline (PBS) to the left eye. IOP was measured prior to dose administration (approximately −1 and 0 hours), and at 2, 4, 6, 8, and 24 hours following treatment. […]
smiles,measurement,setting,value
CC(C)OC(=O)CCC/C=C\C[C@@H]1[C@@H](CC[C@@H](O)CCc2ccccc2)[C@H](O)C[C@@H]1O [Latanoprost],effect on IOP,right eyes vs PBS left eyes kept at about baseline (FIGS. 13-16),decreased the IOP
same,mean maximum effective decrease (Emax) in IOP values,"single 35-μL topical ocular dose, right eye, Groups 1 and 2",3-5 mm Hg
